From PMC5766233, “Ternary copper(II) complex: NCI60 screening, toxicity studies, and evaluation of efficacy in xenograft models of nasopharyngeal carcinoma” (PLoS ONE, 2018)

Columns and labels:
[1] = molecular target: T1, CYP 1A2 (Homo sapiens, UniProt P05177); test: CYP450 inhibition assay, pooled human liver microsomes; format: in vitro ADME; conditions: probe phenacetin
T1 construct: tissue Sekisui Xeno Tech, LLC; host or cells: pooled human liver microsomes
T1 sequence (P05177 1-516): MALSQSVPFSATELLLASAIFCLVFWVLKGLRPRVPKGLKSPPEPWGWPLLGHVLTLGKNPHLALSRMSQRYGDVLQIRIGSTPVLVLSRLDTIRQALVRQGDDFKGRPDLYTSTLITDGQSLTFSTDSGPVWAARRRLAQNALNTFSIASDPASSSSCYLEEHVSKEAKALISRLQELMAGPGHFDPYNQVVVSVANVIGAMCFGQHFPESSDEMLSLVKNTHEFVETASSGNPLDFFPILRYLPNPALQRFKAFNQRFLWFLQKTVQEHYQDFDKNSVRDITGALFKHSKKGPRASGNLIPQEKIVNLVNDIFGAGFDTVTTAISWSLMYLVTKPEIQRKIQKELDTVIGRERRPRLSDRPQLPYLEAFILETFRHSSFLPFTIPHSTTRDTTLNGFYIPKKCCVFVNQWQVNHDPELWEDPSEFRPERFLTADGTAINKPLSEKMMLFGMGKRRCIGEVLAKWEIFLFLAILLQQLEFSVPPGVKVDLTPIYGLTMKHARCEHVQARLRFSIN
Procedure: (§1) In the CYP inhibition assay, human liver microsomes were incubated with the Cu(II) complex or reference standard. The inhibitory effects of these compounds were investigated against the major CYP isoforms namely 1A2, 2C9, 2C19, 2D6, 2B6, 2C8 and 3A4 with their respective isoform probe substrates in one reaction mixture (pooled probe substrate format using LC-MS/MS).
(§2) Pooled human liver microsomes (Sekisui Xeno Tech, LLC., Kansas City, KS, USA) were incubated with different concentrations of Cu(II) complex or reference standards in buffer containing 0.1% DMSO for 10 min at 37°C and the residual enzyme activity was measured using pooled probe substrates method by pooled LC-MS/MS. Briefly, incubation mixtures were prepared in a total volume of 200 μL with final component concentrations as follows: 0.1 M potassium phosphate buffer (pH 7.4), 1.5 mM NADPH, and 0.25 mg/ml HLM. […] After 20 min of incubation, the reactions were terminated by addition of 200 μL ice-cold acetonitrile (Rankem, Avantor Performance Materials India Limited, Andhra Pradesh, India) containing telmisartan and carbamazepine as internal standards (all probe substrates and standards were from Sigma Aldrich). Each reaction mixture was centrifuged at 3,500 rpm for 5 min and the supernatant was subjected to LC-MS/MS analysis. The percent inhibition was calculated using the following equation: %Inhibition=100‑[(activityintestwells/activityinbasalcontrolwells)×100]

[2] = molecular target: T2, CYP 2D6 (Homo sapiens, UniProt P10635); test: as above; format: in vitro ADME; conditions: probe dextromethorphan
T2 construct: tissue Sekisui Xeno Tech, LLC; host or cells: pooled human liver microsomes
Procedure: as §1, §2

[3] = molecular target: T3, CYP 3A4 (Homo sapiens, UniProt P08684); test: as above; format: in vitro ADME; conditions: probe midazolam
T3 construct: tissue Sekisui Xeno Tech, LLC; host or cells: pooled human liver microsomes
Procedure: as §1, §2

[4] = Subacute toxicity, daily for 14 days; format: in vivo, NOD scid gamma female mice; conditions: 4 and 6 mg/kg ip daily for 14 days
Procedure: For subacute toxicity study, three groups of three NSG female mice each were used. Using the formula from NCI, the low dose and high dose were calculated from the MTD value (17.5 mg/kg estimated above) and these were 4 and 6 mg/kg respectively. Mice in the first two groups were administered intraperitoneally with Cu(II) complex at doses of 4 and 6 mg/kg daily respectively for 14 days, while those in the control group received an equal volume of normal saline. […] No mortality was observed during the course of the study. All mice remained healthy with no obvious differences being noted in the general behavior, physical activities or clinical conditions with respect to the control group. The accumulative intraperitoneal doses administered in these groups were 56.0 and 84.0 mg/kg of the Cu(II) complex, respectively.
Mice were divided into three groups of 3 mice each. The Cu(II) complex was administered intraperitoneally at the doses of 4 and 6 mg/kg daily for 14 days, while the control group received an equal volume of normal saline. […] Signs of toxicity, mortality, body weight, food consumption and water intake were monitored and recorded daily. Adverse effects such as rapid or consistent body weight loss reaching 20%, blood stained discharges, labored breathing, paralysis, anemia, and other signs and symptoms mentioned in the acute toxicity study, was used as criteria for termination. At the end of the experiment, the mice were sacrificed and the major organs including the heart, lung, liver, kidney and spleen were examined for gross and histopathological changes.

[5] = test system: HK1 xenograft; test: In vivo efficacy in HK1 xenograft model; set-up: species or system NOD scid gamma female mice
Procedure: Recognizing the relative lack of treatment options for advanced NPC compared to other major cancers in Malaysia and based on our previous finding of the anticancer activity against NPC cells, we proceeded to validate the anticancer properties of the Cu(II) complex in vivo using NPC xenograft models. To test the compound in vivo in the preclinical models, two pilot studies were carried out using the Cu(II) complex. First, the effects of the Cu(II) complex were investigated on HK1 xenograft bearing mice at three different dosage regimens (4, 6 and 8 mg/kg). […] Even though treatment with Cu(II) complex at 8 mg/kg every other day up to 3 doses was effective, 2 out of 7 mice were found deadand the experiment had to be terminated.
2.0 x 10^6 HK1 or C666-1-GFP-Luc2 cells in 100 μl RPMI media mixed with matrigel (BD Matrigel Basement Membrane Matrix; BD Biosciences, Bedford, MA, USA) was inoculated subcutaneously into the right lower flank of the NSG mice. Tumor growth was monitored and measured every other day using a digital caliper (Mitutoyo America Corporation, Aurora, Illinois, USA) until they reached 100–250 mm^3. Then, the mice were randomly assigned into treatment groups. The mice bearing HK1 xenograft tumor were divided into 3 treatment groups and a control (normal saline) group. The first batch received normal saline (one injection daily for 5 days), 6 mg/kg (one injection daily for 5 days) and 8 mg/kg (one injection every other day for 3 doses) of Cu(II) complex while the second batch received normal saline (one injection daily for 4 days), 4 mg/kg (one injection daily for 4 days), 6 mg/kg (one injection daily for 4 days) and 8 mg/kg (one injection every other day for 2 doses) of Cu(II) complex via intraperitoneal route.

T2 sequence (P10635 whole entry): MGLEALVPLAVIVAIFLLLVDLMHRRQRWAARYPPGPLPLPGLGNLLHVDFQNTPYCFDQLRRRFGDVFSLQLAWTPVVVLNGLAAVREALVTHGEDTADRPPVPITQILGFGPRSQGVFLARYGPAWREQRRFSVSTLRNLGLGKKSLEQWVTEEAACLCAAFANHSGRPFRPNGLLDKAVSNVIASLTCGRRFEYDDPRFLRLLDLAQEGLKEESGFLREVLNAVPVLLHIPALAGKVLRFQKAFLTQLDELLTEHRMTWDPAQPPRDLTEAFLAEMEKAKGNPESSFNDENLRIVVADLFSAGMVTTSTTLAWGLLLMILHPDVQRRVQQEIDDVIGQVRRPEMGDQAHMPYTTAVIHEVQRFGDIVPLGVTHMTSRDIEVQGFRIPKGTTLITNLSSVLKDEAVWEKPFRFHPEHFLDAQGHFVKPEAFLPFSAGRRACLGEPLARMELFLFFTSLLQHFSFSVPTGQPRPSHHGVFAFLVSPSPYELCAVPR
T3 sequence (P08684 whole entry): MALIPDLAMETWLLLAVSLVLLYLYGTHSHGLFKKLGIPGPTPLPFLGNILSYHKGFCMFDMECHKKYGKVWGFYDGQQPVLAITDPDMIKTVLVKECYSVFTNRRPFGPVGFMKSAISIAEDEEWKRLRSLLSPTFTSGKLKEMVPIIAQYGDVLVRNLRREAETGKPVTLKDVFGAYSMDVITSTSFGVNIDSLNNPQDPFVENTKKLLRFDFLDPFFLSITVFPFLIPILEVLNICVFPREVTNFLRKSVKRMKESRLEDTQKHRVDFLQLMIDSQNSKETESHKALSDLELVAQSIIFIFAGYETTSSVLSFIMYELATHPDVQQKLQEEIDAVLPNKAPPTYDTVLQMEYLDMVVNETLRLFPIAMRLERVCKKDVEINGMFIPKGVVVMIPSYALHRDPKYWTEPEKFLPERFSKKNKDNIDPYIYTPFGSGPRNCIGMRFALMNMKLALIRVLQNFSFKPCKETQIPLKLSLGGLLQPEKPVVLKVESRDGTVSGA

With `CC(C)(N)C(=O)[O-].O.O=[N+]([O-])[O-].[Cu+2].c1cnc2c(c1)ccc1cccnc12` [Cu(II) complex, [Cu(phen)(C-dmg)(H2O)]NO3] the IC50 [1] was 8.01 µM, the IC50 [2] was 10.2 µM and the IC50 [3] was 5.46 µM. For the same compound, the “Histopathological examination, all organs” value [4] was “no significant morphological changes”, the body weight [4] was “no significant reduction of body weight” and the Mortality ([4]; 14 days further observation) was “No mortality”. The “weight of vital organs” value ([4]; day 28) was “not significantly affected”, the site of injections ([4]; disappeared during the 14-day observation) was “some inflammation and induration” and the mice found dead ([5]; 8 mg/kg every other day up to 3 doses) was 2 out of 7. For the same compound, the tumor growth ([5]; 4, 6 and 8 mg/kg ip) was “significantly inhibited the growth of HK1 tumor”, the “tolerability / body weight” value ([5]; 4 and 6 mg/kg dose regimens) was “well tolerated with no significant body weight loss” and the “Histopathological examination of heart, liver, kidney and lung” value ([5]; all the groups) was “did not show any remarkable changes”. The “weight of vital organs” value ([5]; all treatment groups vs control) was “not significantly affected”.
